Data as given in US20230085307A1, “PYRIDAZINONE COMPOUND AND HERBICIDE” (NISSAN CHEMICAL CORPORATION, priority 2019, published 2023).

Columns and labels:
persian speedwell = test: Test Example 5: herbicidal effect by foliage application, plastic box (Table 20, symbol R); assay type: in vivo, Persian speedwell (Veronica persica); details: foliage application, three weeks after application
How it was run: (§1)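 Sow seeds spot-wise in sterilized diluvial soil; cover with ~1.5 cm soil. Grow 14 days in greenhouse, 25° C. to 30° C. Spray foliage with emulsion diluted to predetermined amount. Rate effect after 3 weeks.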

southern crabgrass = test: Test Example 5: herbicidal effect by foliage application, plastic box (Table 20, symbol F); assay type: in vivo, southern crabgrass (Digitaria ciliaris); details: foliage application, three weeks after application
How it was run: as §1

Chinese sprangletop = test: Test Example 3: herbicidal effect by foliage application, Wagner pot (Table 18, symbol D); assay type: in vivo, chinese sprangletop (Leptochloa chinensis)
How it was run: (§2)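 Plants were sown in alluvial soil held under 0.1–0.5 cm standing water and grown 14 days in a greenhouse at 25–30 °C. An emulsifiable formulation, water-diluted to the set dose, was then sprayed onto the foliage, and effects were scored three weeks later using previously defined criteria.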

wild oat = test: Test Example 5: herbicidal effect by foliage application, plastic box (Table 20, symbol I); assay type: in vivo, wild oat (Avena fatua); details: foliage application, three weeks after application
How it was run: as §1

rice flat sedge = test: Test Example 3: herbicidal effect by foliage application, Wagner pot (Table 18, symbol E); assay type: in vivo, rice flat sedge (Cyperus iria)
How it was run: as §2

lambsquarters = test: Test Example 5: herbicidal effect by foliage application, plastic box (Table 20, symbol O); assay type: in vivo, lambsquarters (Chenopodium album); details: foliage application, three weeks after application
How it was run: as §1

blackgrass = test: Test Example 5: herbicidal effect by foliage application, plastic box (Table 20, symbol J); assay type: in vivo, blackgrass (Alopecurus myosuroides); details: foliage application, three weeks after application
How it was run: as §1

green foxtail = test: Test Example 5: herbicidal effect by foliage application, plastic box (Table 20, symbol G); assay type: in vivo, green foxtail (Setaria viridis); details: foliage application, three weeks after application
How it was run: as §1

false cleavers = test: Test Example 5: herbicidal effect by foliage application, plastic box (Table 20, symbol Q); assay type: in vivo, false cleavers (Galium spurium); details: foliage application, three weeks after application
Description: [Test Example 5] Herbicidal Effect Test by Foliage Application
Sterilized diluvial soil was placed in a plastic box having a length of 21 cm, a width of 13 cm, and a depth of 7 cm. The seeds of each of southern crabgrass, green foxtail, barnyard grass, wild oat, blackgrass, Italian ryegrass, windgrass, velvetleaf, redroot pigweed, lambsquarters, chickweed, false cleavers, persian speedwell, corn, soybean, rice, wheat, beet, and rapeseed were sowed in a spot-like manner and covered with the soil having a thickness of about 1.5 cm. Thereafter, the plants were grown in a greenhouse at 25° C. to 30° C. After 14-day growth of the plants, the emulsion agent of the compound of the present invention prepared according to Formulation Example 2 was diluted with water so as to achieve a predetermined herbicide amount, and the diluted emulsion agent was uniformly applied to a foliage part with a small-sized spray. Three weeks after the herbicide application, the effect of the herbicide on each plant was evaluated according to the criteria of Test Example 1.

Italian ryegrass = test: Test Example 5: herbicidal effect by foliage application, plastic box (Table 20, symbol K); assay type: in vivo, Italian ryegrass (Lolium multiflorum); details: foliage application, three weeks after application
How it was run: as §1

velvetleaf = test: Test Example 5: herbicidal effect by foliage application, plastic box (Table 20, symbol M); assay type: in vivo, velvetleaf (Abutilon theophrasti); details: foliage application, three weeks after application
How it was run: as §1

windgrass = test: Test Example 5: herbicidal effect by foliage application, plastic box (Table 20, symbol L); assay type: in vivo, windgrass (Apera spica-venti); details: foliage application, three weeks after application
How it was run: as §1

chickweed = test: Test Example 5: herbicidal effect by foliage application, plastic box (Table 20, symbol P); assay type: in vivo, common chickweed (Stellaria media); details: foliage application, three weeks after application
How it was run: as §1

barnyard grass [1] = test: Test Example 5: herbicidal effect by foliage application, plastic box (Table 20, symbol H); assay type: in vivo, barnyard grass (Echinochloa crus-galli); details: foliage application, three weeks after application
How it was run: as §1

redroot pigweed = test: Test Example 5: herbicidal effect by foliage application, plastic box (Table 20, symbol N); assay type: in vivo, redroot pigweed (Amaranthus retroflexus); details: foliage application, three weeks after application
How it was run: as §1

barnyard grass [2] = test: Test Example 3: herbicidal effect by foliage application, Wagner pot (Table 18, symbol H); assay type: in vivo, barnyard grass (Echinochloa crus-galli)
How it was run: as §2

Which results are given for `CCS(=O)(=O)c1ccccc1-c1sc2ccccc2c1-c1c(O)c(C)nn(C)c1=O` [1-038]?
herbicidal effect grade, R: persian speedwell (persian speedwell; 123 g/ha): 0 (Herbicidal rate of 5% or less (almost no effect)); herbicidal effect grade, F: southern crabgrass (southern crabgrass; 123 g/ha): 0 (Herbicidal rate of 5% or less (almost no effect)); herbicidal effect on D (Chinese sprangletop), rating 0-5 (Chinese sprangletop; 123 g/ha): 4 (Herbicidal rate of 70% or more and less than 90%); herbicidal effect grade, I: wild oat (wild oat; 123 g/ha): 0 (Herbicidal rate of 5% or less (almost no effect)); herbicidal effect on E (rice flat sedge), rating 0-5 (rice flat sedge; 123 g/ha): 3 (Herbicidal rate of 40% or more and less than 70%); herbicidal effect grade, O: lambsquarters (lambsquarters; 123 g/ha): 0 (Herbicidal rate of 5% or less (almost no effect)); herbicidal effect grade, J: blackgrass (blackgrass; 123 g/ha): 0 (Herbicidal rate of 5% or less (almost no effect)); herbicidal effect grade, G: green foxtail (green foxtail; 123 g/ha): 0 (Herbicidal rate of 5% or less (almost no effect)); herbicidal effect grade, Q: false cleavers (false cleavers; 123 g/ha): 3 (Herbicidal rate of 40% or more and less than 70%); herbicidal effect grade, K: Italian ryegrass (Italian ryegrass; 123 g/ha): 0 (Herbicidal rate of 5% or less (almost no effect)); herbicidal effect grade, M: velvetleaf (velvetleaf; 123 g/ha): 0 (Herbicidal rate of 5% or less (almost no effect)); herbicidal effect grade, L: windgrass (windgrass; 123 g/ha): 0 (Herbicidal rate of 5% or less (almost no effect)); herbicidal effect grade, P: chickweed (chickweed; 123 g/ha): 5 (Herbicidal rate of 90% or more (almost completely withered)); herbicidal effect grade, H: barnyard grass (barnyard grass [1]; 123 g/ha): 0 (Herbicidal rate of 5% or less (almost no effect)); herbicidal effect grade, N: redroot pigweed (redroot pigweed; 123 g/ha): 0 (Herbicidal rate of 5% or less (almost no effect)); herbicidal effect on H (barnyard grass), rating 0-5 (barnyard grass [2]; 123 g/ha): 0 (Herbicidal rate of 5% or less (almost no effect))

How did the “herbicidal effect grade, R: persian speedwell” value (persian speedwell; 295 g/ha) turn out when `Cc1nn(C)c(=O)c(-c2c(-c3ccc(N(C)C)cc3)sc3ccccc23)c1O` [1-039] was run?
The value was 5 (Herbicidal rate of 90% or more (almost completely withered)).

What about the “herbicidal effect grade, F: southern crabgrass” value (southern crabgrass; 295 g/ha) of the same compound?
Its value is 3 (Herbicidal rate of 40% or more and less than 70%).

And the “herbicidal effect on D (Chinese sprangletop), rating 0-5” value (Chinese sprangletop; 295 g/ha)?
The value was 1 (Herbicidal rate of 5% or more and less than 20%).

What about the “herbicidal effect grade, I: wild oat” value (wild oat; 295 g/ha) of the same compound?
Its value is 0 (Herbicidal rate of 5% or less (almost no effect)).

And the “herbicidal effect on E (rice flat sedge), rating 0-5” value (rice flat sedge; 295 g/ha)?
The value was 3 (Herbicidal rate of 40% or more and less than 70%).

And the “herbicidal effect grade, O: lambsquarters” value (lambsquarters; 295 g/ha)?
Its value is 4 (Herbicidal rate of 70% or more and less than 90%).

And the “herbicidal effect grade, J: blackgrass” value (blackgrass; 295 g/ha)?
The value was 1 (Herbicidal rate of 5% or more and less than 20%).

And the “herbicidal effect grade, G: green foxtail” value (green foxtail; 295 g/ha)?
Its value is 4 (Herbicidal rate of 70% or more and less than 90%).

And the “herbicidal effect grade, Q: false cleavers” value (false cleavers; 295 g/ha)?
The value was 0 (Herbicidal rate of 5% or less (almost no effect)).

What about the “herbicidal effect grade, K: Italian ryegrass” value (Italian ryegrass; 295 g/ha) of the same compound?
The value was 2 (Herbicidal rate of 20% or more and less than 40%).

What about the “herbicidal effect grade, M: velvetleaf” value (velvetleaf; 295 g/ha) of the same compound?
Its value is 3 (Herbicidal rate of 40% or more and less than 70%).

And the “herbicidal effect grade, L: windgrass” value (windgrass; 295 g/ha)?
Its value is 0 (Herbicidal rate of 5% or less (almost no effect)).

And the “herbicidal effect grade, P: chickweed” value (chickweed; 295 g/ha)?
Its value is 5 (Herbicidal rate of 90% or more (almost completely withered)).

What about the “herbicidal effect grade, H: barnyard grass” value (barnyard grass [1]; 295 g/ha) of the same compound?
The value was 0 (Herbicidal rate of 5% or less (almost no effect)).

And the “herbicidal effect grade, N: redroot pigweed” value (redroot pigweed; 295 g/ha)?
The value was 5 (Herbicidal rate of 90% or more (almost completely withered)).

And the “herbicidal effect on H (barnyard grass), rating 0-5” value (barnyard grass [2]; 295 g/ha)?
The value was 3 (Herbicidal rate of 40% or more and less than 70%).

How did the “herbicidal effect grade, R: persian speedwell” value (persian speedwell; 320 g/ha) turn out when `CCCC(=O)Oc1c(C)nn(C)c(=O)c1-c1c(-c2ccc(OC)cc2OC)sc2ccccc12` [1-071] was run?
The value was 1 (Herbicidal rate of 5% or more and less than 20%).

What about the “herbicidal effect grade, F: southern crabgrass” value (southern crabgrass; 320 g/ha) of the same compound?
Its value is 0 (Herbicidal rate of 5% or less (almost no effect)).

And the “herbicidal effect on D (Chinese sprangletop), rating 0-5” value (Chinese sprangletop; 320 g/ha)?
The value was 0 (Herbicidal rate of 5% or less (almost no effect)).

And the “herbicidal effect grade, I: wild oat” value (wild oat; 320 g/ha)?
The value was 0 (Herbicidal rate of 5% or less (almost no effect)).

And the “herbicidal effect on E (rice flat sedge), rating 0-5” value (rice flat sedge; 320 g/ha)?
Its value is 0 (Herbicidal rate of 5% or less (almost no effect)).

What about the “herbicidal effect grade, O: lambsquarters” value (lambsquarters; 320 g/ha) of the same compound?
The value was 0 (Herbicidal rate of 5% or less (almost no effect)).

And the “herbicidal effect grade, J: blackgrass” value (blackgrass; 320 g/ha)?
Its value is 0 (Herbicidal rate of 5% or less (almost no effect)).

What about the “herbicidal effect grade, G: green foxtail” value (green foxtail; 320 g/ha) of the same compound?
The value was 0 (Herbicidal rate of 5% or less (almost no effect)).

And the “herbicidal effect grade, Q: false cleavers” value (false cleavers; 320 g/ha)?
The value was 0 (Herbicidal rate of 5% or less (almost no effect)).

What about the “herbicidal effect grade, K: Italian ryegrass” value (Italian ryegrass; 320 g/ha) of the same compound?
The value was 0 (Herbicidal rate of 5% or less (almost no effect)).

What about the “herbicidal effect grade, M: velvetleaf” value (velvetleaf; 320 g/ha) of the same compound?
The value was 3 (Herbicidal rate of 40% or more and less than 70%).

What about the “herbicidal effect grade, L: windgrass” value (windgrass; 320 g/ha) of the same compound?
The value was 0 (Herbicidal rate of 5% or less (almost no effect)).

What about the “herbicidal effect grade, P: chickweed” value (chickweed; 320 g/ha) of the same compound?
The value was 2 (Herbicidal rate of 20% or more and less than 40%).

And the “herbicidal effect grade, H: barnyard grass” value (barnyard grass [1]; 320 g/ha)?
Its value is 0 (Herbicidal rate of 5% or less (almost no effect)).

What about the “herbicidal effect grade, N: redroot pigweed” value (redroot pigweed; 320 g/ha) of the same compound?
Its value is 0 (Herbicidal rate of 5% or less (almost no effect)).

And the “herbicidal effect on H (barnyard grass), rating 0-5” value (barnyard grass [2]; 320 g/ha)?
The value was 2 (Herbicidal rate of 20% or more and less than 40%).
